{
  "source": "patent US20060083680A1",
  "about": "“Diphenyl ether derivatives and their use for imaging serotonin transporters” (The Trustees of the University of Pennsylvania, priority 2004, published 2006)",
  "key": {"[1]": {"test": "Partition coefficient 1-octanol/buffer", "assay_type": "physicochemical", "conditions": "1-octanol/buffer pH 7.4, 0.1 M phosphate", "experimental": "The test tube was vortexed for 3 min at room temperature, then centrifuged for 5 min. Two weighed samples (2 g each) from the 1-octanol and buffer layers were counted in a well counter. The partition coefficient was determined by calculating the ratio of cpm/g of 1-octanol to that of buffer. Samples from the 1-octanol layer were re-partitioned until consistent partition coefficient values were obtained. The measurement was repeated 3 times."}, "SERT binding sites [2]": {"molecular_target": "T1, SERT binding sites (Rattus norvegicus, UniProt P31652)", "T1 construct": "from tissue; host or cells: rat brain in vivo (hypothalamus, cortex, striatum, hippocampus, cerebellum); ex vivo brain sections", "T1 sequence (P31652 whole entry)": "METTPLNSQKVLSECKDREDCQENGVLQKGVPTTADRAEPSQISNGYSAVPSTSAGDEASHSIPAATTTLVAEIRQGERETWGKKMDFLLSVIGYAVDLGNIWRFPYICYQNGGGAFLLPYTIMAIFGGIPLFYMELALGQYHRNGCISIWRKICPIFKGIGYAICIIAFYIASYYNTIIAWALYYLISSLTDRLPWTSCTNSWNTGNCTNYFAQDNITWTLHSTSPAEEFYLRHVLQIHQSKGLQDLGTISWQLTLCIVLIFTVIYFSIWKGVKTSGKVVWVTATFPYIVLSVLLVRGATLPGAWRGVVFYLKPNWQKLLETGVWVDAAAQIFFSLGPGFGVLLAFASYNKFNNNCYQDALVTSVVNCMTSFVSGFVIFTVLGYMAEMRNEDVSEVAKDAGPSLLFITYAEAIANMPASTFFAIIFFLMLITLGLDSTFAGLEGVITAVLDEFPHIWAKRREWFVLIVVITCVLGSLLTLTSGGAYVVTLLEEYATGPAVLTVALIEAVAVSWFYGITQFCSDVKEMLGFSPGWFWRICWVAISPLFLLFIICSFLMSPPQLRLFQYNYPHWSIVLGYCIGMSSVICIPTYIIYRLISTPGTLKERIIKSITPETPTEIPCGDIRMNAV", "test": "In vivo competitive binding / blocking of [^125I]4 regional uptake", "conditions": "rats, drug 2 mg/kg i.v. 5 min prior to tracer, 120 min after [^125I]4", "excerpt": "The reduction of regional specific binding in the drug-pretreated rats was compared to the control animals with saline pretreatment."}, "SERT binding sites [3]": {"molecular_target": "T1, SERT binding sites", "test": "Ex vivo autoradiography of rat brain sections", "assay_type": "in vivo, rats", "conditions": "rat, 2 mg/Kg 5 min prior to [^125I]4"}, "[4]": {"test": "Stability of the radioactive material"}, "[5]": {"molecular_target": "T2, DAT (dopamine transporter) (Rattus norvegicus, UniProt P23977)", "T2 construct": "membrane homogenates", "T2 sequence (P23977 whole entry)": "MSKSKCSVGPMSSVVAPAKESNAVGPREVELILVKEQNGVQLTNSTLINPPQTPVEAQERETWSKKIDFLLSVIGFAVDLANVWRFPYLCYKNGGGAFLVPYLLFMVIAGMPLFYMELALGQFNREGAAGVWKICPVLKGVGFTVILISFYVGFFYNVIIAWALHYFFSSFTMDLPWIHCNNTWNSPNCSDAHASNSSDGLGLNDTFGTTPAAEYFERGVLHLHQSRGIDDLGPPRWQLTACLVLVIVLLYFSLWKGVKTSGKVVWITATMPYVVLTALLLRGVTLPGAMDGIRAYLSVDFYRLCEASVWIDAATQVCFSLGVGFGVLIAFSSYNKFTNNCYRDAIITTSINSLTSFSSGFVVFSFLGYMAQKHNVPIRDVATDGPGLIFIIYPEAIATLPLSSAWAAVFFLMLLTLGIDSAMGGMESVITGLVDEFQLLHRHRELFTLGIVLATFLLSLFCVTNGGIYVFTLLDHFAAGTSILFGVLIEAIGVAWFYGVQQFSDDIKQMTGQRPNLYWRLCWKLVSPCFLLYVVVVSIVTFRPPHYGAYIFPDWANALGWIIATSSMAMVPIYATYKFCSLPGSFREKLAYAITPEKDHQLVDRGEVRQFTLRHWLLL", "test": "In vitro binding assay, membranes of LLC-PK1 cells expressing DAT, [^125I]IPT", "experimental": "(§1) Preparation of membrane homogenates: LLC-PK1 cells from pig kidney permanently expressing DAT, NET and SERT, respectively (LLC-DAT, LLC-NET and LLC-SERT) were kindly provided by Dr. G. Rudnick at Yale University. These cells were grown to confluence as a monolayer on 15 cm petri dish as reported previously. […] Cells were then washed once with phosphate buffer saline (w/ Ca^2+ and Mg^2+) (Bio-Whittaker) and harvested with 10 mL PBS by scraping. The cell suspensions were homogenized on ice for 20 strokes and centrifuged at 17,000 rpm for 20 min at 4° C. The pellets were re-suspended in PBS, frozen quickly in liquid N2 and stored in a −70° C. freezer.\n(§2) Binding assays: Binding assays were performed in a final volume of 0.2 mL. […] Incubation was carried out for one h at room temperature and the bound ligand was collected on glass fiber filters (Schleicher & Schuell No. 25, Keene, N.H.) presoaked with 1% polyethylenimine (Sigma, St. Louis, Mo.) and counted in a gamma counter (Packard 5000). Results of competition experiments were subjected to nonlinear regression analysis using EBDA (Elsevier-BIOSOFT, Cambridge, UK)."}, "[6]": {"molecular_target": "T3, NET (norepinephrine transporter) (Homo sapiens, UniProt P23975)", "T3 construct": "membrane homogenates", "T3 sequence (P23975 whole entry)": "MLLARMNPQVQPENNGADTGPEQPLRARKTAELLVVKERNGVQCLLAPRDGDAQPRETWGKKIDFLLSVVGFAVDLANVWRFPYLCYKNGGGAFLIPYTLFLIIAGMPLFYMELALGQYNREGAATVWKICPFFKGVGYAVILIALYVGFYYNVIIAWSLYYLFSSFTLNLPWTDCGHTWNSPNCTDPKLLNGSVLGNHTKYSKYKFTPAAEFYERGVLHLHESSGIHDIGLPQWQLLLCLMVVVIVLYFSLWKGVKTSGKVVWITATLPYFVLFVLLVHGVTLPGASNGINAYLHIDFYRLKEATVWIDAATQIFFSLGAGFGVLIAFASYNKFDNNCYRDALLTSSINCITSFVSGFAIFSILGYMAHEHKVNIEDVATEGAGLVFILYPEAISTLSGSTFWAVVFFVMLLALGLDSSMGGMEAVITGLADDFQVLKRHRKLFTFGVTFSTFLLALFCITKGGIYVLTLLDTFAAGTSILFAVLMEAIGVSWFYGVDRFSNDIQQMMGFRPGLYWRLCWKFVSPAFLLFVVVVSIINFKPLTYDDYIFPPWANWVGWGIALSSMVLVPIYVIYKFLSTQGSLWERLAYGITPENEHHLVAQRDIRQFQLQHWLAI", "test": "In vitro binding assay, membranes of LLC-PK1 cells expressing NET, [^125I]IPT", "experimental": "as §1, §2"}, "[7]": {"molecular_target": "T4, SERT (serotonin transporter) (Rattus norvegicus, UniProt P31652)", "T4 construct": "membrane homogenates", "T4 sequence (P31652 whole entry)": "as the sequence (P31652 whole entry) above", "test": "In vitro binding assay, membranes of LLC-PK1 cells expressing SERT, [^125I]IDAM", "experimental": "as §1, §2"}, "[8]": {"test": "Biodistribution in rats after iv injection (organs)", "assay_type": "in vivo", "experimental": "Biodistribution in rats: Three rats per group were used for each biodistribution study. While under ether anesthesia, 0.2 mL of a saline solution containing 10 μCi of radioactive tracer was injected into the femoral vein. The rats were sacrificed at the time indicated by cardiac excision while under ether anesthesia. Organs of interest were removed and weighed, and the radioactivity was counted. The percent dose per organ was calculated by a comparison of the tissue counts to counts of 1% of the initial dose (100 times diluted aliquots of the injected material) measured at the same time."}, "serotonin transporters": {"molecular_target": "T5, serotonin transporters (Rattus norvegicus, UniProt P31652)", "T5 construct": "from tissue; host or cells: rat brain in vivo (hypothalamus, cortex, striatum, hippocampus, cerebellum); ex vivo brain sections", "T5 sequence (P31652 whole entry)": "as above", "test": "Regional brain distribution and specific binding ratio in rats", "assay_type": "in vivo", "experimental": "Regional brain distribution in rats was measured after an i.v. injection of the radioactive tracer. Samples from different brain regions: cortex (frontal plus occipital), striatum, hippocampus, cerebellum and hypothalamus were dissected, weighed and counted. The percentage dose/g of each sample was calculated by comparing sample counts with the counts of the diluted initial dose described above. The specific binding ratio in each region was obtained by dividing the % dose/gram values between region by that in the cerebellum ([region-cerebellum/cerebellum]). The cerebellum region containing little or no serotonin transporters was used as the background region."}, "[9]": {"conditions": "LLC-PK1 cells expressing SERT, read-out: Ki SERT"}},
  "note": "Where “and” joins values, the source holds several entries; their conditions need not be identical. Equal entries are not always repeated. Entries after “also recorded” stand apart in the source; their conditions may differ. Where two headings read alike, the source gives them in different places.",
  "data": [
    {"smiles": "CN(C)Cc1ccccc1Sc1ccc([125I])cc1N", "note": "[[^125I]ADAM (3), reference compound]", "values": [
      {"measurement": "Partition coefficient", "setting": "[1]", "result": 335}
    ]},
    {"smiles": "CSc1ccc([C@@H]2CN3CCC[C@@H]3c3ccccc32)cc1", "note": "[(+)McN5652]", "values": [
      {"measurement": "effect of pretreatment on specific binding/uptake of [^125I]4 in hypothalamus", "setting": "SERT binding sites [2]", "result": "completely eliminated the specific binding; also recorded: significantly blocked"},
      {"measurement": "effect of pretreatment on specific uptake of [^125I]4 in brain regions (autoradiography)", "setting": "SERT binding sites [3]", "result": "totally eliminated"}
    ]},
    {"smiles": "CCN1CCC[C@H]1CNC(=O)c1c(O)c(Cl)cc(Cl)c1OC", "note": "[raclopride]", "values": [
      {"measurement": "effect of pretreatment on specific binding/uptake of [^125I]4 in hypothalamus", "setting": "SERT binding sites [2]", "result": "did not show any significant effect"}
    ]},
    {"smiles": "O=C(c1ccc(F)cc1)C1CCN(CCn2c(=O)[nH]c3ccccc3c2=O)CC1", "note": "[ketanserin]", "values": [
      {"measurement": "effect of pretreatment on specific binding/uptake of [^125I]4 in hypothalamus", "setting": "SERT binding sites [2]", "result": "did not show any significant effect"}
    ]},
    {"smiles": "CN(C)Cc1ccccc1Oc1ccc([125I])cc1N", "note": "[[^123I]4, [^125I][^123I]2-(2-(Dimethylaminomethyl)phenoxy)-5-iodophenylamine]", "values": [
      {"measurement": "stability after labeling", "setting": "[4]; after labeling", "result": 24, "unit": "h"}
    ]},
    {"smiles": "CN(C)Cc1ccccc1Oc1ccc(I)cc1CO", "note": "[Compound 2, reference compound]", "values": [
      {"measurement": "Ki", "setting": "[5]", "result": "> 1000", "unit": "nM"},
      {"measurement": "Ki", "setting": "[6]", "result": "20 ± 2", "unit": "nM"}
    ]},
    {"smiles": "CN(C)Cc1ccccc1Oc1ccc(I)cc1N", "note": "[Compound 4, 2-(2-(Dimethylaminomethyl)phenoxy)-5-iodophenylamine]", "values": [
      {"measurement": "Ki", "setting": "[7]", "result": "0.37 ± 0.11", "unit": "nM"},
      {"measurement": "selectivity for SERT over NET and DAT", "setting": "[7]", "result": "more than 500 fold"},
      {"measurement": "Ki", "setting": "[5]", "result": "309 ± 65", "unit": "nM"},
      {"measurement": "Ki", "setting": "[6]", "result": "286 ± 36", "unit": "nM"},
      {"measurement": "Partition coefficient", "setting": "[1]", "result": 418},
      {"measurement": "increase in brain uptake vs ADAM (3)", "setting": "[8]; 2 and 4 h after i.v. injection", "result": "two to three-fold increase"},
      {"measurement": "brain uptake", "setting": "[8]; 2 h after i.v. injection", "result": 1.08, "unit": "% dose/brain"},
      {"measurement": "brain uptake", "setting": "[8]; 4 h after i.v. injection", "result": 0.33, "unit": "% dose/brain"},
      {"measurement": "hypothalamus uptake compared to other radioiodinated compounds", "setting": "serotonin transporters; 60-240 min post i.v. injection", "result": "highest hypothalamus uptake among all of the radioiodinated compounds"},
      {"measurement": "higher uptake in hypothalamus than ADAM (3)", "setting": "serotonin transporters; between 2 and 4 h", "result": "more than 200%"},
      {"measurement": "Regional brain distribution HY (hypothalamus)", "setting": "serotonin transporters; iv, 120 min", "result": 0.92, "unit": "% dose/g"},
      {"measurement": "Regional brain distribution HY (hypothalamus)", "setting": "serotonin transporters; iv, 240 min", "result": 0.32, "unit": "% dose/g"}
    ]},
    {"smiles": "CN(C)Cc1ccccc1Sc1ccc(I)cc1CO", "note": "[Compound 1, reference compound]", "values": [
      {"measurement": "Ki", "setting": "[7]; [9]", "result": "0.097 ± 0.013", "unit": "nM"},
      {"measurement": "Ki", "setting": "[5]", "result": "> 1000", "unit": "nM"},
      {"measurement": "Ki", "setting": "[6]", "result": "234 ± 26", "unit": "nM"}
    ]},
    {"smiles": "CN(C)Cc1ccccc1Cc1ccc(I)cc1N", "note": "[Compound 5, 2-(2-(dimethylaminomethyl)benzyl)-5-iodophenylamine]", "values": [
      {"measurement": "Ki", "setting": "[7]; [9]", "result": "48.6 ± 4.1", "unit": "nM"},
      {"measurement": "Ki", "setting": "[5]", "result": "> 1000", "unit": "nM"},
      {"measurement": "Ki", "setting": "[6]", "result": "17 ± 4", "unit": "nM"}
    ]},
    {"smiles": "COC(=O)C(c1ccccc1)C1CCCCN1", "note": "(stereo not drawn) [methylphenidate]", "values": [
      {"measurement": "effect of pretreatment on specific binding/uptake of [^125I]4 in hypothalamus", "setting": "SERT binding sites [2]", "result": "did not show any significant effect"}
    ]},
    {"smiles": "CN(C)Cc1ccccc1Sc1ccc(C#N)cc1N", "note": "[DASB, reference compound]", "values": [
      {"measurement": "Ki", "setting": "[7]; [9]", "result": "1.1 ± 0.04", "unit": "nM"},
      {"measurement": "Ki", "setting": "[5]", "result": "> 1000", "unit": "nM"}
    ]},
    {"smiles": "CN(C)Cc1ccccc1Cc1ccc([125I])cc1N", "note": "[[^125I]5, 2-(2-(Dimethylaminomethyl)benzyl)-5-[^125I]iodophenylamine]", "values": [
      {"measurement": "Partition coefficient", "setting": "[1]", "result": "1,730"},
      {"measurement": "brain uptake", "setting": "[8]; 2 min post-injection", "result": "1.77 % dose and 1.77±0.049 % dose"},
      {"measurement": "Ratio of (Region-Cerebellum)/Cerebellum, HY", "setting": "serotonin transporters; iv, 120 min", "result": 2.43},
      {"measurement": "stability in a refrigerator", "setting": "[4]; refrigerator", "result": "stable in a refrigerator at least for three weeks"}
    ]}
  ]
}
